In one data set the test system is Musca domestica L. Briefly: Contact test on non-porous tile, Musca domestica. It counts as in vivo. Particulars: for synergizing effect on Cypermethrin: Musca domestica L., synergist applied with Cypermethrin; for mortality at 680 µg/mL: Musca domestica, single substance alone, 0.68 mg/ml, 48 h, read-out: Mortality %/time (h). As to the method:
1 ml of Composition 1 was applied to the tile. […] 1 ml of Composition 8a was distributed on the tile. […] 1 ml of Composition 8a was distributed on a tile. […] At the end of the 30 minutes, the flies were transferred to an untreated area.
1 ml of Composition 3 was applied to the tile. […] 1 ml of Composition 8c was distributed on the tile. […] 1 ml of Composition 8c was distributed on a tile. […] At the end of the 30 minutes, the flies were transferred to an untreated area.
1 ml of Composition 9a was distributed on the tile. […] 1 ml of Composition 9a was distributed on a tile. […] At the end of the 30 minutes, the flies were transferred to an untreated area. […] 1 ml of Composition 10a was distributed on the tile. […] 1 ml of Composition 10a was distributed on a tile. […] At the end of the 30 minutes, the flies were transferred to an untreated area. […] 1 ml of Composition 8c was distributed on the tile. […] 1 ml of Composition 8c was distributed on a tile. […] At the end of the 30 minutes, the flies were transferred to an untreated area.
1 ml of Composition 5a, was distributed on the tile. […] 1 ml of Composition 6a was distributed on the tile. […] 1 ml of Composition 7a was distributed on the tile.
1 ml of Composition 3 was distributed on the tile. […] 1 ml of Composition 9a was distributed on the tile. […] 1 ml of Composition 11a was distributed on a tile. […] 1 ml of Composition 12a was distributed on a tile.
1 ml of Composition 3 was distributed on the tile. […] 1 ml of Composition 17a was distributed on a tile. […] 1 ml of Composition 18a was distributed on a tile. […] Each experiment (A-C) was conducted in duplicate.
1 ml of Composition 23a was distributed on the tile. […] 1 ml of Composition 20a was distributed on a tile. […] Each experiment (A-B) was conducted in duplicate.
1 ml of Composition 3 was distributed on the tile. […] 1 ml of Composition 25a was distributed on a tile. […] Each experiment (A-B) was conducted in duplicate.
1 ml of Composition 23a was distributed on the tile. […] 1 ml of Composition 27a was distributed on a tile. […] Each experiment (A-B) was conducted in duplicate.
1 ml of Composition 26a was distributed on a tile. […] 1 ml of Composition 26b was distributed on a tile. […] 1 ml of Composition 26c was distributed on a tile.
1 ml of Composition 22a was distributed on a tile. […] 1 ml of Composition 22b was distributed on a tile. […] 1 ml of Composition 22c was distributed on a tile.
1 ml of Composition 23a was distributed on the tile. […] 1 ml of Composition 44a was distributed on a tile.
1 ml of Composition 33 was distributed on a tile. […] 1 ml of Composition 33 was distributed on a tile. […] At the end of the 30 minutes, the flies were transferred to an untreated area.
1 ml of Composition 1 was distributed on the tile. […] 1 ml of Composition 34 was distributed on a tile. […] 1 ml of Composition 34 was distributed on a tile. […] At the end of the 30 minutes, the flies were transferred to an untreated area.
1 ml of Composition 3 was distributed on the tile. […] 1 ml of Composition 31a was distributed on a tile. […] 1 ml of Composition 31b was distributed on a tile. […] 1 ml of Composition 31b was distributed on a tile. […] At the end of the 30 minutes, the flies were transferred to an untreated area. […] 1 ml of Composition 38a was distributed on a tile. […] 1 ml of Composition 38a was distributed on a tile. […] At the end of the 30 minutes, the flies were transferred to an untreated area.
G) According to the invention. 1 ml of Composition 40a was distributed on a tile. […] Subsequently, after waiting for the solvent to evaporate, 10 flies were placed on top of the treated til

The next data set relates to Blatta orientalis. The note with it: for synergizing effect on Cypermethrin / Mortality %/time (h) (application): Blatta orientalis; for synergizing effect on Cypermethrin: synergist applied with Cypermethrin; for Mortality %/time (h) (application): Table 37, concentrations in mg/ml in label; for Mortality %: insects on treated tile. Here is the method: Method: Contact test on non-porous tile measuring 400 cm^2 at a temperature of 28° C. Test duration: up to 72 hours after exposure of the insect to the insecticidal active substance.
(§1) Three tests were performed in parallel, A, B, and C, as follows: • A) Comparative. 1 ml of Composition 2 was applied to the tile. After waiting for the complete evaporation of the solvent, 10 cockroaches were placed on top of the treated tile, starting the test. • B) According to the invention. 1 ml of Composition 8b was distributed on the tile. After waiting for the complete evaporation of the solvent, 1 ml of Composition 2 was added to the same tile. Subsequently, after waiting for the solvent to evaporate, 10 cockroaches were placed on top of the treated tile, starting the test. • C) According to the invention. 1 ml of Composition 8b was distributed on a tile. After waiting for the complete evaporation of the solvent, 10 cockroaches were placed for 30 minutes on top of the treated tile. At the end of the 30 minutes, the cockroaches were transferred to an untreated area.
Method: Contact test on non-porous tile measuring 400 cm^2 at a temperature of 28° C. Test duration: up to 120 hours after exposure of the insect to the insecticidal active substance.
as §1, with “4a” for “2”, “8d” for “8b”, “After” for “Subsequently, after”
Six tests were performed in parallel, A, B, C, D, E and F, as follows: • A) Comparative. 1 ml of Composition 9b was distributed on the tile. After waiting for the complete evaporation of the solvent, 1 ml of Composition 4a was added to the same tile. Subsequently, after waiting for the solvent to evaporate, 10 cockroaches were placed on top of the treated tile, starting the test. • B) Comparative. 1 ml of Composition 9b was distributed on a tile. After waiting for the complete evaporation of the solvent, 10 cockroaches were placed for 30 minutes on top of the treated tile. At the end of the 30 minutes, the cockroaches were transferred to an untreated area. […] 1 ml of Composition 10b was distributed on the tile. After waiting for the complete evaporation of the solvent, 1 ml of Composition 4a was added to the same tile. Subsequently, after waiting for the solvent to evaporate, 10 cockroaches were placed on top of the treated tile, starting the test. • D) Comparative. 1 ml of Composition 10b was distributed on a tile. After waiting for the complete evaporation of the solvent, 10 cockroaches were placed for 30 minutes on top of the treated tile. At the end of the 30 minutes, the cockroaches were transferred to an untreated area. […] 1 ml of Composition 8d was distributed on the tile. After waiting for the complete evaporation of the solvent, 1 ml of Composition 4a was added to the same tile. Subsequently, after waiting for the solvent to evaporate, 10 cockroaches were placed on top of the treated tile, starting the test. • F) According to the invention. 1 ml of Composition 8d was distributed on a tile. After waiting for the complete evaporation of the solvent, 10 cockroaches were placed for 30 minutes on top of the treated tile. At the end of the 30 minutes, the cockroaches were transferred to an untreated area.

For a further data set, the system named is Blatta lateralis. The data set can be described thus: Contact test on non-porous tile, Blatta lateralis. It counts as in vivo. Set-up: Mortality %: concentration or dose not given beside the values. The note with it: for Mortality %: 25° C, insects on treated tile; for Mortality %/time (h) (application): Table 37, Blatta lateralis, concentrations in mg/ml in label. As to the method: 1 ml of Composition 24 was distributed on the tile. […] 1 ml of Composition 20c was distributed on a tile. […] 1 ml of Composition 20d was distributed on a tile.
1 ml of Composition 24 was distributed on the tile. […] 1 ml of Composition 28 was distributed on a tile. […] Each experiment (A-B) was conducted in duplicate.
1 ml of Composition 24 was distributed on the tile. […] 1 ml of Composition 21 was distributed on a tile.
1 ml of Composition 4b was distributed on the tile. […] 1 ml of Composition 31c was distributed on a tile. […] 1 ml of Composition 31d was distributed on a tile. […] 1 ml of Composition 31d was distributed on a tile.
1 ml of Composition 24 was distributed on the tile. […] 1 ml of Composition 35 was distributed on a tile. […] 1 ml of Composition 40b was distributed on a tile. […] 1 ml of Composition 42 was distributed on a tile.

Data on 14 compounds can be found in US20260215418A1, “HYDROCARBON ALCOHOLS AND THEIR DERIVATIVES AS SYNERGISTS IN PESTICIDE ACTIVITY” (priority 2022, published 2026).

Like-named read-outs stand apart in the source and are kept apart here.

In the case of `CCCCCCCCCCC(CO)CCCCCCCC` (stereo not drawn) [2-octyldodecanol], the “synergizing effect on Cypermethrin” value in the data set with Musca domestica L. was “synergistic effect, comparable to the activity shown by PBO”; in the data set with Blatta orientalis, “superior to that shown with PBO”. Besides, in the data set on Musca domestica L., the mortality at 680 µg/mL was 20%.
For the compound `CC1(C)C(C=C(Cl)Cl)C1C(=O)OC(C#N)c1cccc(Oc2ccccc2)c1` (stereo not drawn) [Composition 4b, Cypermethrin], the Mortality % in the data set with Blatta lateralis (Example 31, 24 h) came out at 0%; in the data set on Blatta lateralis (Example 31, 48 h), 40%. Also, in the data set on Blatta lateralis (48 h), the “Mortality %/time (h) (application)” value is 40/48 ^ %.
As to `CCCCCCCCOC(=O)OCCCCCCCC` [Composition 18b, Dioctyl carbonate], the “Mortality %/time (h) (application)” value in the data set with Blatta orientalis (48 h) is listed as 0/48 ^ %.
Turning to `COP(=O)(OC)SCn1c(=O)oc2cc(Cl)cnc21` [Composition 23b, Azamethiphos], the Mortality % is 10% in the data set on Blatta orientalis (Example 15, 21° C, 24 h); 17% in the data set on Blatta orientalis (Example 15, 21° C, 48 h); 23% in the data set on Blatta orientalis (Example 15, 21° C, 72 h); 17% in the data set on Blatta orientalis (Example 21, 25° C, 48 h); 10% in the data set on Blatta orientalis (Example 25, 21° C, 24 h); 17% in the data set with Blatta orientalis (Example 25, 21° C, 48 h). Further, in the data set on Blatta orientalis (Example 25, 21° C, 72 h), the Mortality % is 23%. Also, in the data set with Blatta orientalis (48 h), the “Mortality %/time (h) (application)” value is reported as 17/48 ^ %.
In the case of `O=[N+]([O-])NC1=NCCN1Cc1ccc(Cl)nc1` [Composition 24, Imidacloprid], the Mortality % amounted to 20% in the data set on Blatta lateralis (Example 16, 48 h); 20% with Blatta lateralis (Example 22, 48 h); 20% in the data set with Blatta lateralis (Example 26, 48 h); 20% in the data set on Blatta lateralis (Example 33, 48 h). Further, the “Mortality %/time (h) (application)” value with Blatta lateralis (48 h) is 20/48 ^ %.
For the compound `CCCCCCCC/C=C\CCCCCCCCOC(C)=O` [Composition 25b, Oleyl acetate], the “Mortality %/time (h) (application)” value in the data set on Blatta orientalis (48 h) is reported as 0/48 ^ %.
Take `CCCCC(O)CO` (stereo not drawn) [Composition 31c, 1,2-hexandiol]: the “Mortality %/time (h) (application)” value with Blatta lateralis (48 h, listed as 1,2-hexandiol (0.05)) is 14/48 ^ %.
For the compound `CCCCC(O)CO` (stereo not drawn) [Composition 31d, 1,2-hexandiol], the “Mortality %/time (h) (application)” value in the data set with Blatta lateralis (48 h, listed as 1,2-hexandiol (0.07)) was 20/48 ^ %.
On to `CC1(C)C(C=C(Cl)Cl)C1C(=O)OC(C#N)c1cccc(Oc2ccccc2)c1` (stereo not drawn) [Composition 46b, Cypermethrin], for which the Mortality % with Blatta orientalis (Example 36, 25° C, 24 h) amounted to 8%; in the data set with Blatta orientalis (Example 36, 25° C, 48 h) it was 17%. In addition, the “Mortality %/time (h) (application)” value in the data set with Blatta orientalis (48 h, listed as Cypermethrin (0.10)) is 17/48 ^ %.
In the case of `CCCCC(CC)COC(=O)OCC(CC)CCCC` (stereo not drawn) [bis(2-ethylhexyl)-carbonate], in the data set on Musca domestica L., the “synergizing effect on Cypermethrin” value is on record as “high synergizing effect” and the mortality at 680 µg/mL was determined as 19%. Moreover, the “synergizing effect on Cypermethrin” value in the data set on Blatta orientalis is on record as “synergizing effect”.
Regarding `CCCCCCCCCCCCOC(C)=O` [dodecyl acetate], the “synergizing effect on Cypermethrin” value in the data set on Blatta orientalis is recorded as “excellent-fine synergizing effect”.
In the case of `CCCCCCCCOC(C)=O` [n-Octyl acetate], the “synergizing effect on Cypermethrin” value with Blatta orientalis is “excellent-fine synergizing effect”.
Consider Alcohol oleic [Composition 20b], for which the “Mortality %/time (h) (application)” value in the data set with Blatta orientalis (48 h) is on record as 0/48 ^ %.
On the same count and under the same terms, with oleic alcohol [Composition 8b] the figure was 0/48 ^ %.
